The values below come from patent publication US20060003896A1, “Novel diterpenoid compounds imparting stress resistance to plants” (National Institute of Agrobiological Sciences, priority 2002, published 2006).

In one assay the test system is WIZZ gene. Put plainly: RNA gel blotting of WIZZ transcript in tobacco leaf disks. The class given is cell-based. The note with it: 1 nM, 30 minutes after penetrance. The procedure:
The transition in expression of the WIZZ transcript after stimulation with WAF-1 in this invention was ascertained using the following method. Leaf disks stamped out of tobacco leaves were penetrated with 1 nM WAF-1 solution or water and collected at 30 minutes after penetrance to be used for total RNA extraction. Total RNA extraction followed the method described in Seo et al. Plant Cell 1999, 11, 289-299. Isolated total RNA was subjected to RNA gel blotting analysis following the above procedure. A fragment, whose sequence corresponded to bases 877-1211 in the WIZZ cDNA (335 bp) was amplified, and used as a probe. As an internal standard probe, actin cDNA (described in Seo et al. 2000 12, 917-932) was also used. An RNA gel blot membrane containing 20 μg total RNA per lane was analized.

In another assay the test system is SIPK. Briefly: SIPK activity measurement (MBP phosphorylation by anti-SIPK immune complex) in treated tobacco leaves. The class given is cell-based, Nicotiana tabacum cv. Samsun NN. The procedure: As an active substance, the substance isolated in Example 1 was used as a standard. The isolated substance was dissolved in dimethyl sulfoxide (DMSO) and diluted to adequate concentration (0.3, 1.5 and 3 ng/ml) with 10 mM Mes-NaOH (pH 5.6). If it was used in an assay, the DMSO concentration was kept below 0.1%. […] 10 mM Mes-NaOH (pH 5.6) without active substance of the invention was used as a control group. In a certain amount of time, the leaves were collected and immediately frozen in liquid nitrogen to measure the SIPK activity. The measurement was conducted as follows:
Crude protein of 50 μg and anti-SIPK antibody were reacted and the myelin basic protein (MBP) phosphorylation activity of SIPK in the resultant immune complex was measured.
(§1) Using natural isolated substances, preparations at concentrations of 10 and 100 pM, and 1 and 100 nM were prepared and these natural preparations or water were penetrated into tobacco leaf disks, followed by sampling at 30 minutes after treatment, to measure the MBP phosphorylation activity of WIPK and SIPK as described above.

The subject of the next assay is petunia plant body. Put plainly: Flowering of petunia plant bodies after spraying. The class given is in vivo. On the procedure:
In this example, 1-month-old petunia plant body was used. The compound of this invention was dissolved in dimethyl sulfoxide (DMSO) and diluted with 10 mM Mes-NaOH (pH 5.6) to an adequate concentration (300, 100 and 30 ng/ml). 10 mM Mes-NaOH containing the compound of this invention at the given concentration was sprayed on the petunia plant bodies, followed by culture at 24° C. In a control group, 10 mM Mes-NaOH (pH 5.6) without the compound of this invention was used. After a certain amount of time, observation of the gross flowering features of the plant bodies was performed. The administration of the compound of this invention to plants was then discontinued, only buffer was sprayed, and the flowering was observed.

The test system of assay [1] is tobacco (Nicotiana tabacum cv. Samsun—NN). Briefly: Growth of periphery and height of stem after spraying. The class given is in vivo. The following applies: sprayed, 300, 100 and 30 ng/ml, 24° C. The procedure: (§2) In this Example, 15-day-old Arabidopsis (Arabidopsis thaliana), 1-month-old tobacco (Nicotiana tabacum cv. Samsun—NN), or 20-day-old rice (Oryza sativa) was used to provide plant bodies. The compound of this invention was dissolved in dimethyl sulfoxide (DMSO) and diluted with 10 mM Mes-NaOH (pH 5.6) to an adequate concentration (300, 100 and 30 ng/ml). 10 mM of Mes-NaOH containing the compound of this invention at the given concentration was sprayed to tobacco and rice plant bodies, followed by culture at 24° C. As a control group, 10 mM Mes-NaOH (pH 5.6) free of the compound of this invention was used. In a certain amount of time, the periphery and the height of stem above ground level were measured in rice, Arabidopsis and tobacco plant bodies.

The next assay concerns rice (Oryza sativa). The description is as above. The note with it: sprayed, 300, 100 and 30 ng/ml, 24° C. The class given is in vivo. The procedure: as §2
The subject of assay [2] is Arabidopsis (Arabidopsis thaliana). The assay is described as above. The class given is in vivo. The following applies: sprayed, 300, 100 and 30 ng/ml, 24° C. The procedure:
as §2

For the next assay, the system named is SA. Briefly: Intrinsic SA level in tobacco leaves after absorption through the petiole. The class given is cell-based. The following applies: 3-, 6-, 12- or 24-hours culture.
The subject of a further assay is vermin. Put plainly: Presenting vermin to rice administered with the substance. The class given is in vivo. The note with it: vermin presented. On the procedure: Therefore, an experiment was conducted by administering this substance to plants and presenting vermin to the administered plant. In this example, rice was used as a target.
The subject of the next assay is WIPK. Briefly: WIPK activity measurement (MBP phosphorylation by anti-WIPK immune complex) in treated tobacco leaves. The class given is cell-based, Nicotiana tabacum cv. Samsun NN. The procedure:
The WIPK induced activity assay was conducted as follows: A filter paper was spread in a glass Petri dish of 3 cm inside diameter, onto which the test solution for assay was added, organic solvent was removed under the flow of nitrogen gas, and 10 mM Mes-NaOH (pH 5.6) of 1 ml was added, on which three leaf disks (diameter 9 mm) stamped out of the tobacco leaves were placed per Petri dish and cultured at 24° C. In two hours, the disks were collected and immediately frozen in liquid nitrogen to be used in WIPK activity measurement that was conducted following the method described in Seo et al. (1999) Plant Cell 11, 289-291. The outline is as follows:
Crude protein of 50 μg and anti-WIPK antibody were reacted and the myelin basic protein phosphorylation activity of WIPK in the resultant immune complex was measured.
(§3) Isolated material was dissolved in dimethyl sulfoxide (DMSO) and diluted with 10 mM Mes-NaOH (pH 5.6) to an adequate concentration. If it was used in an assay, the DMSO concentration was kept below 0.1%. […] 10 mM Mes-NaOH (pH 5.6) without active substance of the invention was used as a control group. In a certain amount of time, the leaves were collected and immediately frozen in liquid nitrogen to conduct WIPK activity measurement or RNA extraction for Northern blot analysis. WIPK activity measurement, RNA extraction and Northern blot analysis were performed following Seo et al. (1999) plant Cell 11, 289-291. WIPK activity was measured 15 minutes after the subject was allowed to absorb the isolated compound at the given concentration through the petiole. Only buffer was absorbed in a control group. As another control group (healthy leaf), leaves were cut from tobacco plant body to be immediately subjected to WIPK activity measurement. For proteinase inhibitor II (PI-II), basic PR-1, basic PR-2 genes and ACO, transcription product amounts of PI-II, basic PR-1, basic PR-2 genes and ACO-coding gene were measured after allowing the subject absorb the isolated compound at the given concentration through the petiole for a period of time. As a control group, only buffer was absorbed. The outline is as follows:
as §1

Another assay concerns ethylene. Put plainly: Release of ethylene from treated tobacco leaf. The class given is cell-based. The procedure: Ethylene acts as a signal in the induction of basic PR protein of tobacco plant, so the release of ethylene was measured after externally giving WAF-1 to a tobacco leaf as above to evaluate the effects of synthetic substance on ethylene accumulation.
The test system of the next assay is basic PR-2 gene. Briefly: Northern blot analysis of transcription products in treated tobacco leaves. The class given is cell-based, Nicotiana tabacum cv. Samsun NN. The note with it: through the petiole. The procedure:
as §3, with “follows: Nucleic acid hybridization reaction was performed on nylon membrane containing 20 μg total RNA with ^32P-radiolabeled cDNA of tobacco PI-II, basic PR-1, basic PR-2 genes and ACO-coding gene. After the membrane was washed it was used to expose to an X-ray film.” for “follows:”

The subject of a further assay is basic PR-1 gene. The description is as above. The note with it: through the petiole. The class given is cell-based, Nicotiana tabacum cv. Samsun NN. On the procedure:
as §3, with “follows: Nucleic acid hybridization reaction was performed on nylon membrane containing 20 μg total RNA with ^32P-radiolabeled cDNA of tobacco PI-II, basic PR-1, basic PR-2 genes and ACO-coding gene. After the membrane was washed it was used to expose to an X-ray film.” for “follows:”

Assay [3] concerns proteinase inhibitor II gene. The description is as above. The class given is cell-based, Nicotiana tabacum cv. Samsun NN. On the procedure: as §3, with “follows: Nucleic acid hybridization reaction was performed on nylon membrane containing 20 μg total RNA with ^32P-radiolabeled cDNA of tobacco PI-II, basic PR-1, basic PR-2 genes and ACO-coding gene. After the membrane was washed it was used to expose to an X-ray film.” for “follows:”

For another assay, the system named is ACO-coding gene. The assay is described as above. The class given is cell-based, Nicotiana tabacum cv. Samsun NN. The note with it: through the petiole. The procedure:
as §3, with “follows: Nucleic acid hybridization reaction was performed on nylon membrane containing 20 μg total RNA with ^32P-radiolabeled cDNA of tobacco PI-II, basic PR-1, basic PR-2 genes and ACO-coding gene. After the membrane was washed it was used to expose to an X-ray film.” for “follows:”

The subject of the next assay is JA. Put plainly: Intrinsic JA level in tobacco leaves after absorption through the petiole. The class given is cell-based. The note with it: 3-, 6-, 12- or 24-hours culture. The procedure: To evaluate whether the induction of basic pathogenesis-related protein gene (PR-1 and PR-2) and proteinase inhibitor II gene by synthetic substance occurred through JA or SA, 100 nM or 1 μM WAF-1 or water was absorbed into tobacco leaves through the petiole, followed by culture at 24° C., to measure the intrinsic level of JA.

The subject of a further assay is TMV. Put plainly: Defense of tobacco against TMV infection (necrotic lesion size, TMV coat protein). The class given is in vivo, tobacco mosaic virus. The procedure:
To complete the infection, this healthy leaf was allowed to stand at room temperature for 30 minutes and washed with water removing the silicon carbide, after air drying, was put into a transparent plastic box spread with wet filter papers, followed by culture at 30° C. for 40 hours, then at 20° C. for 6 hours.
In this Example, the substance in this invention was administered to non-TMV-infected tobacco as a target. TMV stimulation was then given, under the same conditions as those in Example 1, to plants administered with the substance of this invention at the concentrations shown in FIG. 12 and tp control plant not administered to measure the size of necrotic lesions and the amount of TMV coat protein.

The mark [4] stands for this setting: 1, 5 and 10 nM through the petiole.
The mark [5] stands for this setting: tobacco leaf disks, 30 minutes after treatment.

As to `CC(/C=C/[C@@H]1[C@@]2(C)CCCC(C)(C)[C@@H]2CC[C@@]1(C)O)=C\CO` [WAF-1, (11E,13E)-labda-11,13-diene-8α,15-diol], in the assay on WIZZ gene, the “level of WIZZ transcript compared with leaf disks impregnated with water” value is “higher”. Besides, the “time at which induction of SIPK activity was maximized” value in the assay on SIPK (setting [4]) stood at 15 min. Further, the “induction of SIPK activity” value in the assay with SIPK (each concentration of FIG. 4 (0.3, 1.5 and 3 ng/ml) through the petiole, 15 minutes) is “induction of SIPK activity at any concentration”. For the same compound, the “concentration above which activation of SIPK is significant” value in the assay on SIPK (setting [5]) is greater than 10 pM. Further, the “flowering after discontinuation of administration” value with petunia plant body (only buffer sprayed) is given as “observation of flowering”. Besides, in the assay on petunia plant body (sprayed, 300, 100 and 30 ng/ml, 24° C.), the “flowering vs control group” value is reported as “delay in flowering”. For the same compound, the “growth of periphery and height of stem vs control group” value in [1] was “delay in growth of the periphery and height of stem”; in assay [2], “delay in growth of the periphery and height of stem”. In the assay with rice (Oryza sativa), the “growth of height above ground level vs control group” value was “growth of height above ground level was observed”. The “amount of SA in treated leaves” value in the assay with SA (100 nM) and with SA (1 AM (so in the source)) was “at the same level as those treated with water” each time. Moreover, in the assay with vermin, the “growth in administered rice compared with rice not administered” value is given as “Growth was regulated”. Also, the “time at which WIPK activity was maximized” value in the assay with WIPK (setting [4]) worked out at 15 min. Also, the “time at which induction of WIPK activity was observed” value in the assay on WIPK (setting [4]) was 5 min. Further, the “WIPK activity at 30 minutes” value with WIPK (1, 5 and 10 nM through the petiole, 30 minutes) is “retained maximum activity”. Besides, the “induction of WIPK activity” value with WIPK (each concentration of FIG. 2A given to leaf through the petiole, 15 minutes) is listed as “induction of WIPK activity at any concentration”. In the assay with WIPK (setting [5]), the “concentration above which activation of WIPK is significant” value was greater than 10 pM. Further, the entries for the “level of ethylene released from leaves, relative to leaf treated with water” value in the assay with ethylene (100 nM) and in the assay on ethylene (1 μM) were 1.2 times and 1.4 times, respectively. Moreover, the “accumulation of basic PR-2” value in the assay on basic PR-2 gene is reported as “accumulation”. Moreover, the “accumulation of basic PR-1” value with basic PR-1 gene was “accumulation”. Besides, in assay [3] (16 hours), the “amount of proteinase inhibitor II transcript compared with control group” value is reported as “significantly more”. In addition, the “time at which accumulation of transcription products of proteinase inhibitor II gene was detected” value in [3] (examined in 2, 6 and 16 hours, concentration of FIG. 3, through the petiole) stood at 16 h. Besides, in the assay with ACO-coding gene, the “accumulation of ACO” value is recorded as “accumulation”. Further, the “amount of JA in treated leaves” value in the assay on JA (100 nM) and with JA (1 AM (so in the source)) was “at the same level as those treated with water” in each case.

Take “(11E,13E)-labda-11,13-diene-8α,15-diol [WAF-1]”: the “TMV coat protein amount” value with TMV (tobacco leaf, 100 pM or 100 nM vs water) is “decrease”. For the same compound, the “concentration above which the size of necrotic lesions decreased” value with TMV (tobacco, TMV stimulation, 10 pM to 100 nM, dose-dependent) was “higher than 100 pM”.
